The results in this text go back to patent US8101550B2, “Anthranilic acid diamide derivative with hetero-aromatic and hetero-cyclic substituents” (Bayer Cropscience AG, priority 2006, dated 2012).

By logP is commonly meant the decadic logarithm of the partition coefficient of the neutral form, usually between octanol and water. Low readings indicate a more hydrophilic compound, high ones a more lipophilic compound.

One series can be described thus: log P determination by HPLC on reverse-phase column (EEC Directive 79/831 Annex V.A8). It counts as physicochemical.
Settings: not given
As to the method: The log P values stated in the foregoing tables and preparation examples are determined in accordance with EEC Directive 79/831 Annex V.A8 by means of HPLC (High Performance Liquid Chromatography) on a reverse-phase column (C 18). Temperature: 43° C.
The determination by LC-MS in the acidic range takes place at a pH of 2.7 using 0.1% aqueous formic acid and acetonitrile (containing 0.1% formic acid) as eluents; linear gradient from 10% acetonitrile to 95% acetonitrile.
Calibration is with unbranched alkan-2-ones (having 3 to 16 carbon atoms) of known log P value (log P values determined from the retention times by linear interpolation between two successive alkanones).
The molecule `Cc1cc(Cl)cc(C(=O)NC2CCCC2N)c1NC(=O)c1cc(Cn2cc(Cl)c(C(F)(F)C(F)(F)F)n2)nn1-c1ncccc1Cl` (stereo not shown) [I-1-202] registered a log partition coefficient (logP) of 2.30. Take `C[C@@H](C[S+](C)[O-])NC(=O)c1cc(Cl)cc(Cl)c1NC(=O)c1cc(Cn2cc(C(F)(F)C(F)(F)F)c(C(F)(F)C(F)(F)F)n2)nn1-c1ncccc1Cl` (stereo partly shown) [I-1-325]: the log partition coefficient (logP) worked out at 3.54.

`NC(=O)c1cc(Cl)cc(Cl)c1NC(=O)c1cc(Cn2nc(C(F)(F)F)cc2C(F)(F)F)nn1-c1ncccc1Cl` [I-1-302] displayed a logP of 2.80. `CNC(=O)c1cc(Cl)cc(Cl)c1NC(=O)c1cc(Cc2c(C)noc2C)nn1-c1ncccc1Cl` [I-1-322] gave a logP of 1.94. As to `Cc1cc(C#N)cc(C(=O)NC2CC2)c1NC(=O)c1cc(Cn2cnc(C(F)(F)C(F)(F)F)n2)nn1-c1ncccc1Cl` [I-1-353], the log partition coefficient (logP) came out at 2.08. `CSCC(C)NC(=O)c1cc(C#N)cc(C)c1NC(=O)c1cc(Cn2cc(Cl)c(C(F)(F)C(F)(F)F)n2)nn1-c1ncccc1Cl` (stereo not shown) [I-1-209] yielded a logP of 4.05. Turning to `Cc1cc(Cl)cc(C(=O)NC(C)C)c1NC(=O)c1cc(Cn2cnc(C(F)(F)C(F)(F)F)n2)nn1-c1ncccc1Cl` [I-1-334], the logP turned out to be 2.66.

`NC(=O)c1cc(Cl)cc(Cl)c1NC(=O)c1cc(Cn2cnc(C(F)(F)C(F)(F)F)n2)nn1-c1ncccc1Cl` [I-1-346] displayed a lipophilicity (logP) of 2.01.

`Cc1cc(I)cc(C(=O)NC2CC2)c1NC(=O)c1cc(Cn2nc(C(F)(F)F)cc2C(F)(F)F)nn1-c1ncccc1Cl` [I-1-231] displayed a log partition coefficient (logP) of 4.01. Take `Cc1cc(Cl)cc(C(=O)NC(C)C[S+](C)[O-])c1NC(=O)c1cc(Cn2cc(Cl)c(C(F)(F)C(F)(F)F)n2)nn1-c1ncccc1Cl` (stereo not shown) [I-1-212]: the logP came out at 3.25. Same read-out and setting: then `CC(C)NC(=O)c1cc(Cl)cc(Cl)c1NC(=O)c1cc(Cn2cc(C(F)(F)C(F)(F)F)c(C(F)(F)C(F)(F)F)n2)nn1-c1ncccc1Cl` [I-1-294], with 4.00; and `Cc1cc(F)cc(C(=O)NC(C)CS(C)(=O)=O)c1NC(=O)c1cc(Cn2cc(Cl)c(C(F)(F)C(F)(F)F)n2)nn1-c1ncccc1Cl` (stereo not shown) [I-1-204], with 3.34. Same read-out and setting: then `Cc1cc(Cl)cc(C(=O)NC2CC2CO)c1NC(=O)c1cc(Cn2cc(Cl)c(C(F)(F)C(F)(F)F)n2)nn1-c1ncccc1Cl` (stereo not shown) [I-1-207], with 3.37; and `Cc1cc(I)cc(C(=O)NC2CCCC2)c1NC(=O)c1cc(Cn2nc(C(F)(F)F)nc2C(F)(F)F)nn1-c1ncccc1Cl` [I-1-279], with 4.47. The molecule `CNC(=O)c1cc(F)cc(C)c1NC(=O)c1cc(Cn2nc(C(F)(F)F)cc2C(F)(F)F)nn1-c1ncccc1Cl` [I-1-221] came in with a log partition coefficient (logP) of 3.32.

`Cc1cc(C#N)cc(C(=O)NCC#N)c1NC(=O)c1cc(Cn2nc(C(F)(F)F)nc2C(F)(F)F)nn1-c1ncccc1Cl` [I-1-180]: the log partition coefficient (logP) is recorded as 3.11. Molecule `CC(C)NC(=O)c1cc(Cl)cc(Cl)c1NC(=O)c1cc(Cn2cnc(C(F)(F)C(F)(F)F)n2)nn1-c1ncccc1Cl` [I-1-340] had a log partition coefficient (logP) of 2.55.

`Cc1cc(C#N)cc(C(=O)NC2CC2)c1NC(=O)c1cc(Cn2nc(C(F)(F)F)cc2C(F)(F)F)nn1-c1ncccc1Cl` [I-1-188]: the logP is 3.56. As to `Cc1cc(Cl)cc(C(=O)NC(C)C)c1NC(=O)c1cc(Cn2cnc(C(F)(F)C(F)(F)F)n2)nn1-c1ncccc1Cl` [I-1-341], the logP is 2.63. `CNC(=O)c1cc(I)cc(C)c1NC(=O)c1cc(Cn2nc(C(F)(F)F)cc2C(F)(F)F)nn1-c1ncccc1Cl` [I-1-227] displayed a log partition coefficient (logP) of 3.87.

`Cc1cc(Cl)cc(C(=O)NC2CC2)c1NC(=O)c1cc(Cn2nc(C)c(Br)c2C)nn1-c1ncccc1Cl` [I-1-271] showed a log partition coefficient (logP) of 3.17. As for `CSC[C@H](C)NC(=O)c1cc(Cl)cc(C)c1NC(=O)c1cc(Cn2nnc(-c3cc(Cl)nc(Cl)c3)n2)nn1-c1ncccc1Cl` [I-1-157], the logP is 4.36. Same read-out and setting: then `Cc1cc(Cl)cc(C(=O)NC2C3CCCCC32)c1NC(=O)c1cc(Cn2cc(Cl)c(C(F)(F)C(F)(F)F)n2)nn1-c1ncccc1Cl` (stereo not shown) [I-1-205], with 4.88; and `CNC(=O)c1cc(Cl)cc(Cl)c1NC(=O)c1cc(Cn2cc(Cl)c(C(F)(F)C(F)(F)F)n2)nn1-c1ncccc1Cl` [I-1-308], with 3.18. With `Cc1cc(F)cc(C(=O)NC2CC2CO)c1NC(=O)c1cc(Cn2cc(Cl)c(C(F)(F)C(F)(F)F)n2)nn1-c1ncccc1Cl` (stereo not shown) [I-1-203], the logP is listed as 3.14. Still for that read-out and setting: as for `CCCNC(=O)c1cc(I)cc(C)c1NC(=O)c1cc(Cn2nc(C(F)(F)F)cc2C(F)(F)F)nn1-c1ncccc1Cl` [I-1-229], the figure is 4.33; as for `Cc1cc(C#N)cc(C(=O)NC(C)CS(C)(=O)=O)c1NC(=O)c1cc(Cn2cc(Cl)c(C(F)(F)C(F)(F)F)n2)nn1-c1ncccc1Cl` (stereo not shown) [I-1-210], 3.34. For the molecule `CNC(=O)c1cc(Cl)cc(C)c1NC(=O)c1cc(Cn2nc(C(F)F)c([N+](=O)[O-])c2C(F)F)nn1-c1ncccc1Cl` [I-1-257], the logP amounted to 2.92.

For the molecule `O=C(NCC1CC1)c1cc(Cl)cc(Cl)c1NC(=O)c1cc(Cn2nc(C(F)(F)F)nc2C(F)(F)F)nn1-c1ncccc1Cl` [I-1-293], the logP came to 3.22. Turning to `Cc1cc(C#N)cc(C(=O)NCC#N)c1NC(=O)c1cc(Cn2cc(C(F)(F)C(F)(F)F)c(C(F)(F)C(F)(F)F)n2)nn1-c1ncccc1Cl` [I-1-193], the log partition coefficient (logP) is on record as 4.04. On the same count and under the same terms, as for `CNC(=O)c1cc(C#N)cc(C)c1NC(=O)c1cc(Cn2cc(Cl)c(C(F)(F)C(F)(F)F)n2)nn1-c1ncccc1Cl` [I-1-171], the figure is 3.44. In turn, `Cc1cc(C#N)cc(C(=O)NC2CC2CO)c1NC(=O)c1cc(Cn2cc(Cl)c(C(F)(F)C(F)(F)F)n2)nn1-c1ncccc1Cl` (stereo not shown) [I-1-198] had a logP of 3.11. `Cc1cc(I)cc(C(=O)NC(C)(C)C)c1NC(=O)c1cc(Cn2nc(C(F)(F)F)nc2C(F)(F)F)nn1-c1ncccc1Cl` [I-1-285] came in with a log partition coefficient (logP) of 4.23. The molecule `CC(C)NC(=O)c1cc(Cl)cc(Cl)c1NC(=O)c1cc(Cn2nc(C(F)(F)F)nc2C(F)(F)F)nn1-c1ncccc1Cl` [I-1-291] yielded a logP of 3.76.

The series is the same for the next values; noted with them: HPLC on reverse-phase column.
`CNC(=O)c1cc(Cl)cc(C)c1NC(=O)c1cc(Cn2cc(I)c(I)n2)nn1-c1ncccc1Cl` [I-1-110] yielded a logP of 3.13. On the same count and under the same terms, as for `Cc1cc(Br)cc(C(N)=O)c1NC(=O)c1cc(Cn2cc(C(F)(F)C(F)(F)F)c(C(F)(F)C(F)(F)F)n2)nn1-c1ncccc1Cl` [I-1-53], the figure is 4.17.

`Cc1cc(Br)cc(C(=O)NC(C)(C)C[S+](C)[O-])c1NC(=O)c1cc(Cn2nc(C(F)(F)F)nc2C(F)(F)F)nn1-c1ncccc1Cl` (stereo not shown) [I-1-143] had a logP of 3.20.

`CSCC(C)NC(=O)c1cc(Br)cc(C)c1NC(=O)c1cc(Cn2cc(Br)c(C(F)(F)F)n2)nn1-c1ncccc1Cl` (stereo not shown) [I-1-99] registered a log partition coefficient (logP) of 4.10. The molecule `Cc1cc(Br)cc(C(N)=O)c1NC(=O)c1cc(Cn2nc(C(F)(F)F)cc2C(F)(F)F)nn1-c1ncccc1Cl` [I-1-61] yielded a logP of 3.53. As for `Cc1cc(Br)cc(C(N)=O)c1NC(=O)c1cc(Cn2ccc(C(F)(F)F)n2)nn1-c1ncccc1Cl` [I-1-83], the logP worked out at 2.75. In turn, `Cc1cc(Cl)cc(C(=O)NC(C)(C)C[S+](C)[O-])c1NC(=O)c1cc(Cn2cc(Br)c(C(F)(F)F)n2)nn1-c1ncccc1Cl` (stereo not shown) [I-1-136] yielded a logP of 3.23.

Turning to `Cc1cc(Cl)cc(C(=O)NC(C)C)c1NC(=O)c1cc(Cn2nc(C(F)(F)F)n(C3CC3)c2=O)nn1-c1ncccc1Cl` [I-1-126], the logP came to 3.18. In turn, `Cc1cc(Br)cc(C(=O)NC(C)C)c1NC(=O)c1cc(Cn2ccc(C(F)(F)F)n2)nn1-c1ncccc1Cl` [I-1-81] returned a logP of 3.46. Molecule `Cc1cc(Br)cc(C(=O)NCC#N)c1NC(=O)c1cc(Cn2nc(C(F)(F)F)cc2C(F)(F)F)nn1-c1ncccc1Cl` [I-1-59] yielded a lipophilicity (logP) of 3.65. Same read-out and setting: then `Cc1cc(Cl)cc(C(=O)NC(C)C)c1NC(=O)c1cc(Cn2cc(Br)c(C(F)(F)F)n2)nn1-c1ncccc1Cl` [I-1-67], with 3.78.

`Cc1cc(Cl)cc(C(=O)NC(C)CS(C)(=N)=O)c1NC(=O)c1cc(Cn2nc(C(F)(F)F)nc2C(F)(F)F)nn1-c1ncccc1Cl` (stereo not shown) [I-1-120] had a log partition coefficient (logP) of 2.75.

`CNC(=O)c1cc(Cl)cc(C)c1NC(=O)c1cc(Cn2nnn(-c3ccc(Cl)cc3)c2=O)nn1-c1ncccc1Cl` [I-1-38]: the logP stood at 3.28. In turn, `CNC(=O)c1cc(Cl)cc(C)c1NC(=O)c1cc(Cn2nc(C(F)(F)F)n(C3CC3)c2=O)nn1-c1ncccc1Cl` [I-1-127] came in with a lipophilicity (logP) of 2.74.

The same series, now with this note: HPLC, reverse-phase column (C 18), 43° C., acidic range pH 2.7.
`Cc1cc(Cl)cc(C(=O)NC(C)(C)C)c1NC(=O)c1cc(Cn2nc(C(F)(F)F)cc2C(F)(F)F)nn1-c1ncc(C(F)(F)F)cc1Cl` [I-2-16] had a logP of 5.12.

For `Cc1cc(Cl)cc(C(=O)NC(C)C)c1NC(=O)c1cc(Cn2nc(C(F)(F)F)cc2C(F)(F)F)nn1C` [I-2-1], the log partition coefficient (logP) is reported as 4.08. `CC(C)NC(=O)c1cc2ccccc2c(Cl)c1NC(=O)c1cc(Cn2nc(C(F)(F)F)cc2C(F)(F)F)nn1-c1ncccc1Cl` [I-3-1] returned a log partition coefficient (logP) of 4.08.

As to `CC(C)NC(=O)c1cc(Cl)cc(Cl)c1NC(=O)c1cc(Cn2nc(C(F)(F)F)cc2C(F)(F)F)nn1-c1ncc(C(F)(F)F)cc1Cl` [I-2-8], the logP came out at 4.68. `Cc1cc(Br)cc(C(=O)NC(C)C)c1NC(=O)c1cc(Cn2nc(C(F)(F)F)cc2C(F)(F)F)nn1-c1ncc(C(F)(F)F)cc1Cl` [I-2-21] yielded a logP of 4.75. Molecule `CNC(=O)c1cc(Cl)cc(C)c1NC(=O)c1cc(Cn2nc(C(F)(F)F)cc2C(F)(F)F)nn1-c1ncc(C(F)(F)F)cc1Cl` [I-2-22] showed a logP of 3.53.

Staying with this series, now noted: reverse-phase C18 HPLC column; HPLC, reverse-phase column (C 18), 43° C., acidic range pH 2.7; read-out: logP.
`COC(=O)c1cc(CO)nn1-c1ncccc1Cl` [Example 6, Methyl 2-(3-chloropyridin-2-yl)-5-hydroxymethyl-2H-pyrazole-3-carboxylate]: the chromatographic logP came out at 1.26.
